Measured values as given in article PMC7463913, “The Interaction of Fluorinated Glycomimetics with DC-SIGN: Multiple Binding Modes Disentangled by the Combination of NMR Methods and MD Simulations” (Pharmaceuticals, 2020).

Assays:
DC-SIGN (ECD) [1] = target: T1, DC-SIGN (ECD) (Homo sapiens, UniProt Q9NNX6); test: competitive 19F-R2 filtered NMR experiments (spy molecule 6-F-ManαOMe); type: binding; conditions: non-linear least squares fitting; [6-F-ManαOMe] 400 µM, [DC-SIGN (CRDs)] 10 µM; 298 K, pH 8.0
T1 construct: DC-SIGN full extracellular domain (ECD, residues 70-404, Thermo Fischer Scientific); made in house
T1 sequence (Q9NNX6 70-404): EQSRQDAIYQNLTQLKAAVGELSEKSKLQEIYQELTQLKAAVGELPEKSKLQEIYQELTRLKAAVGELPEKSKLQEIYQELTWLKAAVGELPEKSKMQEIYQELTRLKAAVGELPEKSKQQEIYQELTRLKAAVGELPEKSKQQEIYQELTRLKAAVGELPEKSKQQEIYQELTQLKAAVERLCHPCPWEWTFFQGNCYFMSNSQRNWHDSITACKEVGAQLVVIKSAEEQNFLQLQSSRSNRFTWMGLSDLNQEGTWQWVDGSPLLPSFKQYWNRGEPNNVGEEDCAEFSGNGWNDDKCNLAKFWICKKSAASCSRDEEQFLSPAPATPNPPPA
Description: In order to gain insights into the effects that the different fluorination patterns may have in the binding event, the affinities of 1b, the natural analogue of 1, as well as 1c and 1d, two partially fluorinated trisaccharides, were also estimated. (Table 2, Figure S1).
(§1) For KD estimation of 6-deoxy-6-F-Man (the spy-molecule), the free evolution delay was set to an optimized value τ=1 ms , after using relaxation dispersion experiments to assure a negligible chemical exchange contribution to R2,obs (Figure S1a). The KI of 1, 1b-d, 2, and 3 with DC-SIGN (ECD) was determined by titration experiments in a competitive fashion. Increasing amounts of the competitor molecules (compounds 1, 1b-d, 2, and 3) were added to a solution mixture of the spy molecule and the protein in each case, calculating the R2,obs of the spy molecule at each competitor concentration while the ratio [Spy-molecule]/[Protein] is fixed (40:1) (Figure S1c).
(§2) 19F-R2 filtered experiments
The KD of compounds 1, 1b-d, 2 and 3 was estimated applying a 19F-R2 filtered approach. 6-F-ManαOMe, which weakly binds to DC-SIGN, was selected as the spy molecule. Relaxation rates R2 were determined employing a CPMG pulse sequence, by fitting the observed 19F signal intensity to the exponential decay curve:
ܫ(ݐ) = ܫ଴݁ି௧ோమ = ܫ଴݁ି௡ଶఛோమ (1) where ܫ(ݐ) refers to intensity at time ݐ, ܫ଴ is intensity at ݐ = 0, and ܴଶ is the transversal relaxation rate (ܴଶ = 1/ܶଶ).
In the limit of fast-exchange where the exchange contribution to the observed transversal relaxation rate ܴଶ,௢௕௦ is insignificant (Figure S1, a)), the following equations apply:
ܴଶ,௢௕௦ = ܴଶ,௙ + ൫ܴଶ,௕ − ܴଶ,௙൯݌௕ (2)
(§3) [ܲ]் + [ܮ]் + ܭ஽ − ඥ([ܲ]் + [ܮ]் + ܭ஽)ଶ − 4[ܲ]்[ܮ]் (3) where [ܲ]் and [ܮ]் are the total protein and ligand concentrarion respectively, [ܴ]ଶ,௙ and [ܴ]ଶ,௕ are the relaxation rates in the free and bound states, ݌௕ is the fraction of bound ligand and ܭ஽ the dissociation constant of the protein-ligand complex. [ܴ]ଶ,௙ of 6-F-ManαOMe was measured in absence of the lectin, and Equation 2 was used to estimate ܭ஽and [ܴ]ଶ,௕ for the […]
Then, ܭூ of compounds 1, 1b-d, 2 and 3 was measured in a competitive manner. ܴଶ,௢௕௦ of 6-F-ManαOMe (spy molecule) in solution with DC-SIGN ECD was monitored at 5 different competitor concentrations ([ܫ]) in each case with a fixed [ܲ]்/[ܮ]் ratio (Figure S1, c)), to derive ܭூ by fitting to Equation 2 with ݌௕ as defined in Equations (4) and (5) (Table 2):
݌௕ = 3ܭ + 2 cos൫ߠൗ ൯ √ܽଶ − 3ܾ − ܽ (4)
ߠ = cos ൬ ଶඥ(௔మିଷ௕)య ൰, ܽ = ܭ஽ + ܭூ + [ܮ]் + [ܫ]் − [ܲ]், ܾ = ([ܫ]் − [ܲ]்)ܭ஽ + ([ܮ]் − [ܲ]்)ܭ஽ + ܭூܭ஽, ܿ = −ܭூܭ஽[ܲ]்
Figure S1. 19F-R2 filtered experiments. a) Relaxation dispersion experiment for 6-F-ManαOMe (the spy molecule). R2,obs of the 19F nucleus is measured for different values of ωCPMG. Ligand and protein sample concentrations were: [6-F-ManαOMe] = 400 µM, [DC-SIGN (CRDs)] = 10 µM (counting concentration of CRDs, i.e, 4 CRDs per DC-SIGN ECD tetramer). For ωCPMG > 1000 s-1, there is virtually negligible exchange contribution to R2. Therefore, all the subsequent R2 filtered experiments were carried out with τCPMG = 1/ωCPMG = 1 ms. b) KD determination of 6-F-ManαOMe with DC-SIGN. R2,obs was measured for increasing amounts of [6-F-ManαOMe]/[DC-SIGN (CRDs)] (blue dots). KD and R2,b were obtained from fitting to Equation 2, which is valid in the fast-exchange regime (Rex = 0) [39a]. The predicted values at each [6-F-ManαOMe]/[DC-SIGN (CRDs)] are shown as red stars for comparison c) Titration curves showing the variation in 19F-R2,obs of the spy molecule 6-F-ManαOMe, when increasing amounts of the competitors (I) 1, 1b-d, 2 and 3 are added to a mixture [6-F-ManαOMe] = 400 µM, [DC-SIGN (CRDs)] = 10 µM. […]

DC-SIGN (ECD) [2] = target: T1, DC-SIGN (ECD); test: 19F-R2 filtered NMR KD determination of the spy molecule; type: binding; conditions: spy molecule with DC-SIGN; fast-exchange regime, τCPMG 1 ms
Protocol: as §1, §2
The KD of compounds 1, 1b-d, 2 and 3 was estimated applying a 19F-R2 filtered approach. […] Relaxation rates R2 were determined employing a CPMG pulse sequence, by fitting the observed 19F signal intensity to the exponential decay curve: […]
as §3

`CO[C@H]1O[C@H](CO[C@H]2O[C@H](CO)[C@@H](O)[C@H](O)[C@@H]2O)[C@@H](O)[C@H](O[C@H]2O[C@H](CO)[C@@H](O)[C@H](O)[C@@H]2F)[C@@H]1O` [1d] was tested, and the Ki (DC-SIGN (ECD) [1]) was 1100 µM.
`CO[C@H]1O[C@H](CO[C@H]2O[C@H](CO)[C@@H](O)[C@H](O)[C@@H]2O)[C@@H](O)[C@H](O[C@H]2O[C@H](CO)[C@@H](O)[C@H](O)[C@@H]2O)[C@@H]1O` [1b, reference compound] gave a Ki (DC-SIGN (ECD) [1]) of 1100 µM.
With `CO[C@H]1O[C@H](CF)[C@@H](O)[C@H](O)[C@@H]1O` [6-F-ManαOMe] the Kd (DC-SIGN (ECD) [2]) was 1300 µM.
